These results are taken from patent US8609329B2, “FRET-based assay for screening modulators of receptor cycling” (Albany Medical College, priority 2007, dated 2013).

The test system of this assay is LDL-R-LDL-C complexes. As to the kind of experiment: Automated FRET imaging of LDL-C-BODIPY/LDL-C-DiI internalized into MDCK cells (organization of LDL-R/LDL-C complexes). The class given is cell-based. As for the experimental part: MDCK cells were bound with LDL-C-BODIPY and LDL-C-DiI for 2 h at 4° C. or incubated for various times (5-8 min and 20-30 min) at 37° C. in the presence or absence of BafilomycinA 1 (BafA1), a specific vacuolar-type ATPase inhibitor. Images were collected using a LSM Zeiss 510META confocal microscope with 63×1.4NA oil lens, 512×512 pixel resolution, no filter, 2× zoom. Then images were processed using an integrated and automated ImageJ plugin, which includes background removal, PFRET algorithm, ROI selection and E % analysis (48). […]
First, images were background-subtracted and processed by PFRET software, which removed donor and acceptor SBT pixel-by-pixel on the basis of matched fluorescence levels between the double-label specimen and single-label reference specimens, using seven images; two single-label donor reference images (donor excitation/donor channel and acceptor channel); two single-label acceptor reference images (donor and acceptor excitation, both in the acceptor channel); three double-label images (donor excitation/donor and acceptor channel, acceptor excitation/acceptor emission. Elangovan et al., 2003; Wallrabe et al., 2003a,b). […] The pixel-by-pixel correction used to generate the processed FRET (PFRET) image was actually based on the average value of narrow fluorescence rangers, for more efficient running of the correction algorithm (Elangovan et al., 2003). […]

As for `CO/C1=C\C(C)=C\[C@@H](C)[C@@H](O)[C@@H](C)C/C(C)=C/C=C/[C@H](OC)[C@@H]([C@@H](C)[C@@H](O)[C@H](C)[C@@]2(O)C[C@@H](O)[C@H](C)[C@@H](C(C)C)O2)OC1=O` [BafA1, Bafilomycin A1], the “organization of LDL-R-LDL-C complexes (clustered vs. random)” value (30 min internalization at 37° C., 100 nM BafA1) is recorded as “clustered organization”. For the same compound, the “dependency of E % on acceptor levels” value (LDL-C internalized at 37° C. for 30 min in the presence of 100 nM BafA1) is listed as “clear independency from acceptor”.
